The values that follow come from PubChem BioAssay (NCI).

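How tested: cells in 96-well plates exposed to compound for 48 hours at five concentrations. Definition used: TGI = concentration required for complete inhibition of growth.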

Some test systems named below: A498 renal; A549 NSCLC; ACHN renal; BT-549 breast; DU-145 prostate; EKVX NSCLC; IGROV1 ovarian; MDA-MB-435; NCI-H23 lung; NCI/ADR-RES ovarian; OVCAR-4 ovarian; OVCAR-5 ovarian; PC-3 prostate; SF-295 CNS; SK-MEL-28 melanoma; SW-620 colon; UACC-257 melanoma; CCRF-CEM leukemia; HCC-2998 colon; SF-539 CNS.
Test in all cases: growth of human tumour cells (NCI), 48 h

Consider `CC(C)CC1c2[nH]c3ccccc3c2C[C@H]2C(=O)NC(CCCCNC(=O)OC(C)(C)C)C(=O)N12` (some centres not stated), for which the TGI with A498 renal is above 100 µM; with A549 NSCLC, above 100 µM; with ACHN renal, above 100 µM; in the experiment on BT-549 breast, 95.5 µM; with DU-145 prostate, above 100 µM; in the experiment on EKVX NSCLC, above 100 µM. Further, the TGI in the experiment with IGROV1 ovarian, in the experiment with MDA-MB-435, with NCI-H23 lung, with NCI/ADR-RES ovarian, with OVCAR-4 ovarian and in the experiment with OVCAR-5 ovarian was above 100 µM throughout. The TGI with PC-3 prostate is 65.5 µM; in the experiment with SF-295 CNS it was 40.9 µM; with SK-MEL-28 melanoma, above 100 µM; in the experiment on SW-620 colon, above 100 µM; in the experiment with UACC-257 melanoma, above 100 µM.
Turning to `COC(=O)n1c(C)c(C=O)c2ccc(OC)cc21`, the TGI in the experiment on A549 NSCLC was above 100 µM; in the experiment on ACHN renal it was above 100 µM; in the experiment on BT-549 breast, 73.2 µM; in the experiment with CCRF-CEM leukemia, above 100 µM; in the experiment on DU-145 prostate, above 100 µM; in the experiment with EKVX NSCLC, above 100 µM. In addition, the TGI in the experiment on HCC-2998 colon was 55.8 µM; with IGROV1 ovarian it was above 100 µM; with MDA-MB-435, 47.2 µM; with NCI-H23 lung it was 89.7 µM; in the experiment on NCI/ADR-RES ovarian, above 100 µM; with OVCAR-4 ovarian, above 100 µM. Further, the TGI was above 100 µM in the experiment on OVCAR-5 ovarian; above 100 µM in the experiment with PC-3 prostate; 69.6 µM in the experiment on SF-295 CNS; 55.2 µM with SF-539 CNS; above 100 µM in the experiment with UACC-257 melanoma.
On to `COc1cccc(C=C2N=C(c3ccccc3)N(n3c(-c4ccccc4)nc4ccccc4c3=O)C2=O)c1`, for which the TGI in the experiment on A498 renal, in the experiment on A549 NSCLC, with ACHN renal, with BT-549 breast, with CCRF-CEM leukemia and in the experiment with DU-145 prostate was above 100 µM throughout. The TGI in the experiment on EKVX NSCLC, in the experiment on HCC-2998 colon, in the experiment with IGROV1 ovarian, with MDA-MB-435, with NCI-H23 lung and in the experiment on PC-3 prostate was above 100 µM in each case. Also, the TGI in the experiment with SF-295 CNS, in the experiment on SF-539 CNS, in the experiment on SK-MEL-28 melanoma, in the experiment on SW-620 colon and with UACC-257 melanoma was above 100 µM in each case.
Take `COC(=O)c1nn2ccc3ccccc3c2c1C(=O)OC`: the TGI in the experiment with A498 renal, in the experiment with A549 NSCLC, with ACHN renal, in the experiment with BT-549 breast, with DU-145 prostate and with EKVX NSCLC was above 100 µM throughout. Also, the TGI in the experiment with IGROV1 ovarian, with MDA-MB-435, in the experiment with NCI-H23 lung, with NCI/ADR-RES ovarian, in the experiment with OVCAR-4 ovarian and with OVCAR-5 ovarian was above 100 µM throughout. Also, the TGI with PC-3 prostate, with SF-295 CNS, in the experiment on SF-539 CNS, with SK-MEL-28 melanoma, in the experiment with SW-620 colon and in the experiment on UACC-257 melanoma was above 100 µM in each case.
`CC(=O)Oc1c(OC(C)C)c(C)c(O[Si](C(C)C)(C(C)C)C(C)C)c2[nH]c3ccccc3c12`: the TGI in the experiment with A549 NSCLC, in the experiment on ACHN renal, in the experiment with BT-549 breast, in the experiment with CCRF-CEM leukemia, in the experiment on DU-145 prostate and in the experiment with EKVX NSCLC was above 100 µM throughout. For the same compound, the TGI in the experiment with IGROV1 ovarian, in the experiment on MDA-MB-435, in the experiment with NCI-H23 lung, in the experiment with NCI/ADR-RES ovarian, in the experiment on OVCAR-4 ovarian and in the experiment on OVCAR-5 ovarian was above 100 µM each time. Further, the TGI with PC-3 prostate, with SF-295 CNS, in the experiment with SF-539 CNS, in the experiment on SK-MEL-28 melanoma, with SW-620 colon and in the experiment with UACC-257 melanoma was above 100 µM in each case.
Regarding `CCc1[nH]c(=O)c2oc3cc4ccccc4cc3c2c1C(=O)O`, the TGI in the experiment with A549 NSCLC, with ACHN renal, in the experiment on BT-549 breast, in the experiment with DU-145 prostate, with EKVX NSCLC and in the experiment on HCC-2998 colon was above 10 µM throughout. The TGI with IGROV1 ovarian, with NCI/ADR-RES ovarian, in the experiment on OVCAR-4 ovarian, in the experiment on OVCAR-5 ovarian, with PC-3 prostate and in the experiment on SF-295 CNS was above 10 µM each time. Further, the TGI with SF-539 CNS, with SW-620 colon and in the experiment on UACC-257 melanoma was above 10 µM in each case.
As for `CCOC(=O)c1nc2ccc(C(F)(F)F)cc2nc1Nc1ccc(F)cc1`, the TGI in the experiment on A498 renal was above 100 µM; in the experiment with A549 NSCLC, 82.9 µM; with ACHN renal, above 100 µM; in the experiment with BT-549 breast, above 100 µM; with DU-145 prostate it was above 100 µM; with IGROV1 ovarian, above 100 µM. Moreover, the TGI in the experiment with MDA-MB-435, with NCI-H23 lung, in the experiment with NCI/ADR-RES ovarian, in the experiment on OVCAR-4 ovarian, in the experiment on OVCAR-5 ovarian and in the experiment on PC-3 prostate was above 100 µM throughout. The TGI in the experiment on SF-295 CNS, in the experiment on SF-539 CNS, in the experiment with SK-MEL-28 melanoma, with SW-620 colon and with UACC-257 melanoma was above 100 µM throughout.
In the case of `CCOC(=O)c1nc2ccccc2nc1Oc1ccc(C#N)cc1`, the TGI in the experiment on A498 renal, in the experiment on A549 NSCLC, in the experiment with ACHN renal, in the experiment on BT-549 breast, in the experiment on CCRF-CEM leukemia and in the experiment on DU-145 prostate was above 100 µM each time. The TGI with EKVX NSCLC, in the experiment with IGROV1 ovarian, in the experiment on MDA-MB-435, in the experiment on NCI/ADR-RES ovarian, with OVCAR-4 ovarian and with OVCAR-5 ovarian was above 100 µM throughout. The TGI with PC-3 prostate, with SF-295 CNS, in the experiment with SF-539 CNS, with SK-MEL-28 melanoma, in the experiment on SW-620 colon and in the experiment with UACC-257 melanoma was above 100 µM each time.
